This note sets out measurements from ChEMBL document CHEMBL1154563, “Flavonol-cinnamate cycloadducts and diamide derivatives from Aglaia laxiflora” (J Nat Prod, 2000).

Converted amounts (≈) assume the structure as drawn. The source made the active and inactive calls. No cut-off for these calls is given here.

In experiment [1] the test system is P388. Put plainly: Cytotoxicity against mouse P388 cells. The class given is functional, cell-based.
For experiment [2], the system named is MOLT-4. Put plainly: Cytotoxicity against human MOLT4 cells. The class given is functional, cell-based.
Experiment [3] concerns WEHI-164. Put plainly: Cytotoxicity against mouse WEHI164 cells. The class given is functional, cell-based.
The nature of experiment [4]: Cytotoxicity against mouse LL/2 cells. The class given is functional, cell-based, Lewis lung carcinoma.
For experiment [5], the system named is Jurkat. Put plainly: Cytotoxicity against human Jurkat cells. The class given is functional, cell-based.

Turning to `CC[C@@](C)(O)C(=O)N[C@@H]1CCCN1C(=O)[C@H]1[C@H](c2ccccc2)[C@]2(c3ccc(OC)cc3)Oc3cc(OC)cc(OC)c3[C@@]1(O)[C@H]2OC(C)=O`, the result in experiment [1] and in experiment [2] was inactive.

In the case of `CC[C@@](C)(O)C(=O)N[C@@H]1CCCN1C(=O)[C@@H]1[C@@H](c2ccccc2)[C@]2(c3ccc(OC)cc3)Oc3cc(OC)cc(OC)c3[C@@]1(O)[C@H]2OC(C)=O`, the outcome in experiment [1] and in experiment [2] was inactive.

Turning to `CC[C@@](C)(O)C(=O)N[C@@H]1CCCN1C(=O)[C@@H]1[C@@H](c2ccccc2)[C@@]2(O)c3c(OC)cc(OC)cc3O[C@]1(c1ccc(OC)cc1)[C@H]2OC(C)=O`, the result in experiment [1] and in experiment [2] was inactive.

`COc1ccc([C@@]23Oc4cc(OC)cc(OC)c4[C@]2(O)[C@H](O)C[C@H]3c2ccccc2)cc1` [ROCAGLAOL]: the IC50 (in general, the point on the concentration scale where inhibition reaches its midpoint) in experiment [3] was 0.023 µg/mL (≈ 0.0529 µM); in experiment [4] (Mus musculus, Lewis lung carcinoma, read-out: IC50), 0.034 µg/mL (≈ 0.0783 µM); in experiment [1] (Mus musculus, P388, read-out: IC50), below 0.01 µg/mL.

Consider `COc1cc(OC)c2c(c1)O[C@@]1(c3ccc(OC)c(O[C@@H]4O[C@H](C)[C@@H](O)[C@H](OC)[C@@H]4OC(C)=O)c3)[C@H](c3ccccc3)C[C@@H](O)[C@@]21O`, for which the values for the IC50 in experiment [4] (lewis lung carcinoma), in experiment [1] (p388) and in experiment [5] were 0.0042 µg/mL (≈ 0.00643 µM), 0.036 µg/mL (≈ 0.0552 µM) and 0.0022 µg/mL (≈ 0.00337 µM), respectively.

In the case of `CC[C@@](C)(O)C(=O)N[C@@H]1CCCN1C(=O)[C@@H]1[C@@H](c2ccccc2)[C@@]2(O)c3c(OC)cc(OC)cc3O[C@]1(c1ccc(OC)cc1)[C@H]2O`, the outcome in experiment [1] and in experiment [2] was inactive.
